Source: ChEMBL document CHEMBL5046262, “Fragment-Based Discovery of MRTX1719, a Synthetic Lethal Inhibitor of the PRMT5•MTA Complex for the Treatment of MTAP-Deleted Cancers” (J Med Chem, 2022)
Values joined by “and” are separate entries in the source; they are usually repeats but may differ in a detail not shown here. Identical values can stand only once.

Legend:
[1] = Apparent permeability across apical to basolateral side in dog MDCKII-MDR1 cells at 2 uM incubated for 2.5 hrs by LC-MS/MS analysis; type: ADME, cell-based, Canis lupus familiaris, MDCK-MDR1; conditions: for Papp A→B at 2.5 h, 2 µM: MDCK-MDR1
[2] = molecular target: T1, Protein arginine N-methyltransferase 5 (Homo sapiens, UniProt O14744)
[3] = Efflux ratio of apparent permeability across basolateral to apical side over apical to basolateral side in dog MDCKII-MDR1 cells at 2 uM incubated for 2.5 hrs by LC-MS/MS analysis; type: ADME, cell-based, Canis lupus familiaris, MDCK-MDR1; conditions: for efflux ratio at 2.5 h, 2 µM: MDCK-MDR1; for Ratio: mdck-mdr1, 2.5 h, 2 µM, 2.5 h
[4] = molecular target: T1, Protein arginine N-methyltransferase 5; remark: listed apart in the source
[5] = species: Homo sapiens; test: Selectivity ratio of IC50 for inhibition of human PRMT5 co-complexed with MEP50 in absence of MTA to IC50 for inhibition of MTA-bound human PRMT5 co-complexed with MEP50
[6] = molecular target: T1, Protein arginine N-methyltransferase 5; test: Inhibition of PRMT5 methyltransferase activity in human HCT-116 cells expressing wild type MTAP assessed as inhibition of PRMT5- mediated SDMA modification level incubated for 96 hrs by Western blot analysis; type: cell-based
[7] = molecular target: T1, Protein arginine N-methyltransferase 5; test: Inhibition of PRMT5 methyltransferase activity in MTAP knockout human HCT-116 cells assessed as inhibition of PRMT5- mediated SDMA modification level incubated for 96 hrs by Western blot analysis; type: cell-based
[8] = tested on: HCT-116; test: Antiproliferative activity against human HCT-116 cells expressing wild type MTAP assessed as reduction in cell viability incubated for 5 days followed by replacement with fresh medium containing compound and measured after 5 days by CTG assay; type: functional, cell-based
[9] = Intrinsic clearance in human hepatocytes; type: ADME, cell-based, Hepatocyte; conditions: read-out: CLH
[10] = tested on: HCT-116; test: Antiproliferative activity against MTAP knockout human HCT-116 cells assessed as reduction in cell viability incubated for 5 days followed by replacement with fresh medium containing compound and measured after 5 days by CTG assay; type: functional, cell-based
[11] = Intrinsic clearance in mouse hepatocytes; type: ADME, cell-based, Hepatocyte; conditions: read-out: CLH
[12] = species: Homo sapiens; test: Selectivity ratio of IC50 for inhibition of PRMT5 methyltransferase activity in human HCT-116 cells expressing wild type MTAP to IC50 for nhibition of PRMT5 methyltransferase activity in MTAP knockout human HCT-116 cells; type: cell-based
[13] = Total clearance in CD-1 mouse at 3 mg/kg, iv measured upto 24 hrs by LC-MS/MS analysis; type: ADME, organism-based; conditions: in vivo
[14] = Oral bioavailability in cynomolgus monkey at 10 mg/kg administered via gavage measured upto 24 hrs by LC-MS/MS analysis; type: ADME, organism-based, Macaca fascicularis; conditions: in vivo
[15] = Half life in cynomolgus monkey at 2 mg/kg, iv measured upto 24 hrs by LC-MS/MS analysis; type: ADME, organism-based, Macaca fascicularis; conditions: in vivo
[16] = Cmax in CD-1 mouse at 30 mg/kg, po administered via gavage measured upto 24 hrs by LC-MS/MS analysis; type: ADME, organism-based; parameters: route oral, dose 30 mg/kg, time <=24; conditions: in vivo
[17] = Cmax in beagle dog at 10 mg/kg, po administered via gavage measured upto 24 hrs by LC-MS/MS analysis; type: ADME, organism-based, Canis lupus familiaris; parameters: route oral, dose 10 mg/kg, time <=24; conditions: in vivo
[18] = Total clearance in beagle dog at 2 mg/kg, iv measured upto 24 hrs by LC-MS/MS analysis; type: ADME, organism-based, Canis lupus familiaris; conditions: in vivo
[19] = Volume of distribution at steady state in beagle dog at 2 mg/kg, iv measured upto 24 hrs by LC-MS/MS analysis; type: ADME, organism-based, Canis lupus familiaris; conditions: in vivo, read-out: Vdss
[20] = Volume of distribution at steady state in CD-1 mouse at 3 mg/kg, iv measured upto 24 hrs by LC-MS/MS analysis; type: ADME, organism-based; conditions: in vivo, read-out: Vdss
[21] = Total clearance in cynomolgus monkey at 2 mg/kg, iv measured upto 24 hrs by LC-MS/MS analysis; type: ADME, organism-based, Macaca fascicularis; conditions: in vivo
[22] = Volume of distribution at steady state in cynomolgus monkey at 2 mg/kg, iv measured upto 24 hrs by LC-MS/MS analysis; type: ADME, organism-based, Macaca fascicularis; conditions: in vivo, read-out: Vdss
[23] = AUCinfinity in beagle dog at 10 mg/kg, po administered via gavage measured upto 24 hrs by LC-MS/MS analysis; type: ADME, organism-based, Canis lupus familiaris; parameters: route oral, dose 10 mg/kg, time <=24; conditions: in vivo
[24] = Half life in beagle dog at 2 mg/kg, iv measured upto 24 hrs by LC-MS/MS analysis; type: ADME, organism-based, Canis lupus familiaris; conditions: in vivo
[25] = Oral bioavailability in CD-1 mouse at 30 mg/kg administered via gavage measured upto 24 hrs by LC-MS/MS analysis; type: ADME, organism-based; conditions: in vivo
[26] = Half life in CD-1 mouse at 3 mg/kg, iv measured upto 24 hrs by LC-MS/MS analysis; type: ADME, organism-based; conditions: in vivo
[27] = AUCinfinity in CD-1 mouse at 30 mg/kg, po administered via gavage measured upto 24 hrs by LC-MS/MS analysis; type: ADME, organism-based; parameters: route oral, dose 30 mg/kg, time <=24; conditions: in vivo
[28] = Oral bioavailability in beagle dog at 10 mg/kg administered via gavage measured upto 24 hrs by LC-MS/MS analysis; type: ADME, organism-based, Canis lupus familiaris; conditions: in vivo
[29] = molecular target: PRMT5/MEP50 complex (Homo sapiens, UniProt O14744); test: Inhibition of streptavidin sensor chip immobilized biotinylated human PRMT5/MEP50 assessed as dissociation constant by SPR analysis; type: protein-complex assay
Chain of PRMT5/MEP50 complex (O14744 whole entry): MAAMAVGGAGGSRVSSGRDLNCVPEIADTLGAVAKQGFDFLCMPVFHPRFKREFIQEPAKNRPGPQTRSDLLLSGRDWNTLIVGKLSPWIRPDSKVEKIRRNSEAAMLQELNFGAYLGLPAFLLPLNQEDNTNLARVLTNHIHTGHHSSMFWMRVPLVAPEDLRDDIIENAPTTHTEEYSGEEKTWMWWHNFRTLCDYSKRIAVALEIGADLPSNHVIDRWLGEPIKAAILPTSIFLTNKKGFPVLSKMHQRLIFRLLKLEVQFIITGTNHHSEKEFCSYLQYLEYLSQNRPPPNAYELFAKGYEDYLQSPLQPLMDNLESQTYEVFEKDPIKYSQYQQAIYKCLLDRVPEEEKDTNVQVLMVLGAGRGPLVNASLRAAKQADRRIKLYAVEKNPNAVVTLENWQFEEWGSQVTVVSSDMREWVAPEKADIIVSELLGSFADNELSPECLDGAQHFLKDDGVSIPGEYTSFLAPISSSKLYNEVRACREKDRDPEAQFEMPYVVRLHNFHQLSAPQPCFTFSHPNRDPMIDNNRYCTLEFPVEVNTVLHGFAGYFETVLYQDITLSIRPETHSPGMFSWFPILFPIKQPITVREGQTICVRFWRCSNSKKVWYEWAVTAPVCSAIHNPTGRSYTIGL
Chain of PRMT5/MEP50 complex (Q9BQA1 whole entry, further chain): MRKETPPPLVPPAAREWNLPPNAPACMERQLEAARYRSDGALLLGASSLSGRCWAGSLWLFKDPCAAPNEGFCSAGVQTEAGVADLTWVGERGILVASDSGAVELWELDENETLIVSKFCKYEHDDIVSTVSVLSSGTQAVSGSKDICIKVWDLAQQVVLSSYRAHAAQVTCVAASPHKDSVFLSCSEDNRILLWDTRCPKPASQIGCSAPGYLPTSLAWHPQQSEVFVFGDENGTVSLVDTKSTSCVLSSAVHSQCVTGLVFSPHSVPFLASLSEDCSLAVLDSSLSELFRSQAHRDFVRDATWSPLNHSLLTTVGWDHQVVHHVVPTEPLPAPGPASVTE

T1 sequence (O14744 whole entry): as the sequence (O14744 whole entry) above

Compound	Papp A→B at 2.5 h, 2 µM [1]	IC50 [2]	efflux ratio at 2.5 h, 2 µM [3]	IC50 [4]	Ratio IC50 [5]	IC50 [6]	IC50 [7]	IC50 [8]	CLint scaled [9]	IC50 [10]	CLint scaled [11]	other results
NCc1n[nH]c(=O)c2ccc(-c3cccnn3)cc12	1.1 ×10⁻⁶ cm/s	> 100000 nM	0.9	30100 nM	–	–	–	–	–	–	–	–
Cc1ccc(-c2ccc3c(=O)[nH]nc(CN)c3c2)cn1	4.7 ×10⁻⁶ cm/s	69000 nM	3.5	5800 nM	12	–	–	–	–	–	–	–
Cn1ncc(-c2ccc3c(=O)[nH]nc(CN)c3c2)c1-c1ccccc1	1.5 ×10⁻⁶ cm/s	–	20	3000 nM	–	9810 nM	2470 nM	4060 nM	23 mL/min/kg	3650 nM	123 mL/min/kg	–
NCc1n[nH]c(=O)c2ccc(-c3cncs3)cc12	14.6 ×10⁻⁶ cm/s	–	0.6	–	–	–	–	–	–	–	–	–
CC(C)n1cc(-c2ccc3c(=O)[nH]nc(CN)c3c2)cn1	1.31 ×10⁻⁶ cm/s	11400 nM	20.1	670 nM	17	–	–	–	–	–	–	–
Cn1ncc(-c2ccc3c(=O)[nH]nc(CN)c3c2)c1-c1c(Cl)ccc(OC2CC2)c1C#N	0.3 ×10⁻⁶ cm/s	–	131	–	–	> 1000 nM	11 nM	1650 nM	< 18 mL/min/kg	91 nM	332 mL/min/kg	–
CCn1cc(-c2ccc3c(=O)[nH]nc(CN)c3c2)cn1	2 ×10⁻⁶ cm/s	10600 nM	6.2	510 nM	21	–	–	–	–	–	–	–
NCc1n[nH]c(=O)c2ccc(-c3cnsc3)cc12	11.1 ×10⁻⁶ cm/s	11600 nM	0.8	710 nM	16	–	–	–	–	–	–	–
Cn1ncc(-c2ccc3c(=O)[nH]nc(CN)c3c2)c1-c1ccccc1C#N	1.6 ×10⁻⁶ cm/s	–	7	4000 nM	–	3170 nM	826 nM	> 10000 nM	< 18 mL/min/kg	5230 nM	148 mL/min/kg	Ratio IC50 [12]: 4
Cn1ncc(-c2ccc3c(=O)[nH]nc(CN)c3c2)c1-c1c(F)cccc1C#N	0.3 ×10⁻⁶ cm/s	–	42	4000 nM	–	> 10000 nM	322 nM	7440 nM	18 mL/min/kg	761 nM	171 mL/min/kg	–
CC(=O)N1CCC(Nc2cc(C(=O)NC[C@H](O)CN3CCc4ccccc4C3)ncn2)CC1 [PEMRAMETOSTAT]	–	–	–	–	–	–	–	237 nM	–	189 nM	–	–
Cc1cccc(-c2c(-c3ccc4c(=O)[nH]nc(CN)c4c3)cnn2C)c1C#N	0.6 ×10⁻⁶ cm/s	–	36	3000 nM	–	8830 nM	101 nM	> 10000 nM	29 mL/min/kg	365 nM	296 mL/min/kg	–
Cn1ncc(-c2ccc3c(=O)[nH]nc(CN)c3c2)c1-c1c(F)cc2ccccc2c1C#N	0.4 ×10⁻⁶ cm/s	–	85	–	–	569 nM and > 1000 nM	–	1020 nM and 5930 nM	18 mL/min/kg	–	255 mL/min/kg	clearance [13]: 78 mL/min/kg; bioavailability [14]: 28%; Papp ([1]; mdck-mdr1, 2.5 h, 2 µM, 2.5 h): 0.3 ×10⁻⁶ cm/s; half-life [15]: 2.6 h; Cmax [16]: 590 ng/mL; Cmax [17]: 880 ng/mL; clearance [18]: 21 mL/min/kg; Vd [19]: 4.4 L/kg; Vd [20]: 5.3 L/kg; clearance [21]: 24 mL/min/kg; Vd [22]: 3.3 L/kg; AUC(0-inf) [23]: 4800 ng·h/mL; Ratio [3]: 136; half-life [24]: 3.9 h; bioavailability [25]: 34%; half-life [26]: 1.5 h; AUC(0-inf) [27]: 2730 ng·h/mL; bioavailability [28]: 60%
C[S@@+](CC[C@H](N)C(=O)[O-])C[C@H]1O[C@@H](n2cnc3c(N)ncnc32)[C@H](O)[C@@H]1O	–	–	–	–	–	–	–	–	–	–	–	Kd [29]: 550 nM
COc1cccc(-c2c(-c3ccc4c(=O)[nH]nc(CN)c4c3)cnn2C)c1C#N	0.6 ×10⁻⁶ cm/s	–	20	1000 nM	–	> 10000 nM	62 nM	> 10000 nM	< 18 mL/min/kg	851 nM	137 mL/min/kg	–
Cn1ncc(-c2ccc3c(=O)[nH]nc(CN)c3c2)c1-c1cccc(Cl)c1C#N	0.7 ×10⁻⁶ cm/s	–	35	2000 nM	–	8810 nM	62 nM	> 10000 nM	< 18 mL/min/kg	544 nM	232 mL/min/kg	clearance [13]: 121 mL/min/kg; Vd [20]: 6.6 L/kg; bioavailability [25]: 12%; half-life [26]: 1.3 h
Cc1c(-c2ccc3c(=O)[nH]nc(CN)c3c2)cnn1C	4.9 ×10⁻⁶ cm/s	1290 nM	0.6	50 nM	26	–	–	–	–	–	–	–
CCCn1cc(-c2ccc3c(=O)[nH]nc(CN)c3c2)cn1	3.2 ×10⁻⁶ cm/s	7650 nM	2.7	320 nM	24	–	–	–	–	–	–	–
Cn1ncc(-c2ccc3c(=O)[nH]nc(CN)c3c2)c1-c1cc2ccccc2cc1C#N	0.5 ×10⁻⁶ cm/s	–	31	–	–	–	118 nM	5090 nM	< 18 mL/min/kg	264 nM	212 mL/min/kg	–
Cc1cc(OC2CC2)c(C#N)c(-c2c(-c3ccc4c(=O)[nH]nc(CN)c4c3)cnn2C)c1	0.4 ×10⁻⁶ cm/s	–	62	–	–	–	9 nM	1290 nM	21 mL/min/kg	77 nM	175 mL/min/kg	–
Cn1ncc(-c2ccc3c(=O)[nH]nc(CN)c3c2)c1-c1sc2ccccc2c1C#N	0.6 ×10⁻⁶ cm/s	–	58	–	–	> 1000 nM	5 nM	5800 nM	41 mL/min/kg	58 nM	280 mL/min/kg	–
NCc1n[nH]c(=O)c2ccc(-c3ccccn3)cc12	9.3 ×10⁻⁶ cm/s	> 100000 nM	1.2	95800 nM	–	–	–	–	–	–	–	–
Cn1ncc(-c2ccc3c(=O)[nH]nc(CN)c3c2)c1-c1ccc2ccccc2c1C#N	0.4 ×10⁻⁶ cm/s	–	99	–	–	1210 nM	11 nM	1980 nM	< 18 mL/min/kg	49 nM	340 mL/min/kg	–
NCc1n[nH]c(=O)c2ccc(-c3ccccc3)cc12	–	–	–	–	3	–	–	–	–	–	–	–
Cn1ncc(-c2ccc3c(=O)[nH]nc(CN)c3c2)c1-c1c(F)ccc(OC2CC2)c1C#N	0.2 ×10⁻⁶ cm/s	–	143	–	–	1050 nM and 4480 nM	–	2180 nM and 3620 nM and 4210 nM	18 mL/min/kg	43 nM and 17 nM and 112 nM	143 mL/min/kg	Ratio [3]: 123 and 150
CSC[C@H]1O[C@@H](n2cnc3c(N)ncnc32)[C@H](O)[C@@H]1O [METHYLTHIOADENOSINE]	–	–	–	–	–	–	–	–	–	–	–	Kd [29]: 661 nM
NCc1n[nH]c(=O)c2ccc(-c3cnn(CCO)c3)cc12	0.9 ×10⁻⁶ cm/s	11200 nM	0.9	–	16	–	–	–	–	–	–	–
NCc1n[nH]c(=O)c2ccc(-c3cccnc3)cc12	2.8 ×10⁻⁶ cm/s	19000 nM	0.7	910 nM	21	–	–	–	–	–	–	–
CCc1cccc(-c2c(-c3ccc4c(=O)[nH]nc(CN)c4c3)cnn2C)c1C#N	0.3 ×10⁻⁶ cm/s	–	35	2000 nM	–	3210 nM	79 nM	> 10000 nM	18 mL/min/kg	175 nM	523 mL/min/kg	–
